From patent US9586901B2, “Lactams” (UNILEVER PLC, priority 2006, dated 2017)

Experiments:
S. epidermidis biofilm = assay: Inhibition of biofilm formation in petri dishes, S. epidermidis; assay type: cell-based; conditions: 0.32 ug/ml; percent reduction of control
Experimental: (§1) Biofilm formation in petri dishes was measured using the following protocol as a compromise between flow cells and microtitire plate based assays. The method increases the number of replicates (relative to flow cells) that can be tested while still generating a biofilm that has typical structures, such as microcolonies, which are important as differentiated structures within the biofilm. The method consists of placing a surface, such as a glass slide (for unattached compounds) or a modified plastic coupon (for covalently attached compounds) on the bottom of a sterile petri dish and adding growth medium. The bacteria are inoculated into the dish and allowed to incubate at the appropriate temperature at 50 rpm. The medium is replaced at 24 h and allowed to incubate a further 24 h, after which time, the slides are removed and rinsed to remove loosely attached cells. For monitoring biofilm formation on glass slides, the cells are either stained with a suitable fluorescent stain and are visualised using the confocal microscope and the biofilm (as % surface coverage) is quantified, or the biofilm is stained with crystal violet, washed thoroughly to remove excess stain, and subsequently destained and the absorbance at […] is measured to determine the amount of biofilm, as a function of crystal violet staining.

V. fischeri luxRI system = assay: N-acylated homoserine lactone (AHL) quorum sensing assay, GFP reporter strain; assay type: cell-based, E. coli
Experimental: Compounds of the present invention were compared to compounds of the prior art in order using an AHL-quorum sensing assay which utilises a reporter strain that expresses Green Fluorescent Protein (GFP) in the presence of AHL signals. The assay is performed by measuring GFP output in the presence of the compound to be measured and comparing the output to a control. By using multiple samples at varying concentrations of compound and AHL, an inhibition index of compound activity can be generated. The inhibition index used in the present example is the relative amount of compound required to reduce GFP expression to 40% of the control. The inhibition index is termed AIC40. Lower values of AIC40 represent better inhibitors of the AHL quorum sensing system.
The reporter strain of bacterium used in this assay is E. coli into which the V. fischeri luxRI system has been engineered. A gfp gene is fused to the QS controlled luxI promoter as is described in (Andersen et al., 2001, and Andersen et al, 1998).
Measurement of AIC40 (ID40 at 3 nM OHHL)
Determination of the activity of compounds using the E. coli based luxRI construct was performed as follows.
In a 15 mL plastic tube, mix 3 mL of o.n. culture of the lux reporter strain with 12 mL fresh medium, incubate at 37° C. Label six tubes, 10, 20, two 50 and two 100. To each of the tubes, add OHHL (3-oxohexanoyl homoserine lactone) to a final concentration of 10, 20, 50, or 100 nM respectively in the AB medium (add enough medium to distribute across the appropriate number of wells). To the first row of the microplate (row A), add 200 ul of the OHHL/AB mixture. To the remaining rows (B-H) add 100 ul of the OHHL/AB mixture. To the first row (A) add compounds to be tested to the 200 ul mixture of OHHL/AB. Make a dilution series in the first 7 rows by transferring 100 μL from wells in row 1 to wells in row 2 and so on. Discard the remaining 100 μL from row 7. Add 100 μL diluted lux monitor to each well. Incubate the plate 2 hours at 37° C. and measure green fluorescence using the “Victor” plate reader.
Calculate ID40 for each column. To do this, calculate the relative activity in each well. […] Make a plot for each concentration of OHHL vs. the range of compound concentrations used. Calculate the amount of compound needed to lower the relative activity to 40%, this is termed inhibiting dose 40%, ID40. For each compound an inhibition index, AIC40, is found as follows: plot ID40 against its respective AHL concentration; AIC40 is the slope of the best straight line through the plotted points and origin.
The methodology for this assay is set out in 2(a) above.

[1] = test system: Staphylococcus epidermidis; assay: S. epidermidis growth inhibition (OD600 growth curves); assay type: cell-based; conditions: concentration of compound that significantly alters growth rate or final growth yield
Experimental: The growth inhibition of Staphylococcus epidermidis by the compounds of the present invention was determined by growing S. epidermidis in 96 well microtitre plates in Trypticase Soy Broth plus 0.5% glucose in a Wallac Victor2 microplate reader. Each compound was added to the wells at different concentrations and a no-compound control and a set of blank wells were also used. The OD600 was measured hourly.

P. aeruginosa biofilm = assay: Inhibition of biofilm formation in petri dishes, P. aeruginosa; assay type: cell-based; conditions: 1 ug/ml; percent reduction of control
Experimental: as §1

E. coli biofilm = assay: Inhibition of biofilm formation in petri dishes, E. coli; assay type: cell-based; conditions: 1.5 ug/ml; percent reduction of control
Experimental: as §1

LasR = LasR assay (unstable gfp fused to the elastase promoter); assay type: cell-based; conditions: Pseudomonas aeruginosa, read-out: LasR (conc)
Experimental: Compounds of the present invention were also assayed using a LasR assay. The LasR assay provides a measurement of quorum sensing inhibition activity. The higher the percentage inhibition. […] In the LasR assay, an unstable gfp has been fused to the elastase promoter, so that the amount of Gfp is regulated by the QS system. The plasmid is put into Pseudomonas aeruginosa which makes its own AHL signals. The assay is performed by adding the compounds to be tested to the system at the beginning of the experiment, at different concentrations. Gfp expression is measured at different times during growth, ending at the 24 h time point. The percentage fluorescence was determined at the time point when the fluorescence reached its maximum in the control, usually around 11-12 h after inoculation.

## C=C1NC(=O)C=C1c1ccc(Br)cc1 [drawing 25]
S. epidermidis biofilm
  S. epidermidis biofilm: 41% (0.32 ug/ml)
V. fischeri luxRI system; Table 4, number in parentheses, amount of compound lowering relative activity to 40%
  ID40 at 3 nM OHHL: 21 nM
V. fischeri luxRI system; Table 4 comparative results, first number of the cell, lower = better
  AIC40: 0.49
V. fischeri luxRI system; inhibition index: slope of ID40 against AHL concentration, lower = better inhibitor, NE = no effect
  AIC40: 0.49
[1]
  minimal effective concentration: 1 µg/mL
P. aeruginosa biofilm
  P. aeruginosa biofilm: 32% (1 ug/ml)
E. coli biofilm
  E. coli biofilm: 93% (1.5 ug/ml)
LasR
  inhibition at 50 µg/mL: 45%
